The values that follow come from patent US20260297109A1, “COMPOUNDS AS SUMO ACTIVATING ENZYME INHIBITORS” (WIGEN BIOMEDICINE TECHNOLOGY (SHANGHAI) CO., LTD., priority 2022, published 2026).

A value given as a limit tells only on which side of the number the result lay.

In the first test the target is T1, SAE (Homo sapiens, UniProt Q9UBT2).
T1 construct: endogenous in cells; host or cells: HCT116
T1 sequence (Q9UBT2 1-640): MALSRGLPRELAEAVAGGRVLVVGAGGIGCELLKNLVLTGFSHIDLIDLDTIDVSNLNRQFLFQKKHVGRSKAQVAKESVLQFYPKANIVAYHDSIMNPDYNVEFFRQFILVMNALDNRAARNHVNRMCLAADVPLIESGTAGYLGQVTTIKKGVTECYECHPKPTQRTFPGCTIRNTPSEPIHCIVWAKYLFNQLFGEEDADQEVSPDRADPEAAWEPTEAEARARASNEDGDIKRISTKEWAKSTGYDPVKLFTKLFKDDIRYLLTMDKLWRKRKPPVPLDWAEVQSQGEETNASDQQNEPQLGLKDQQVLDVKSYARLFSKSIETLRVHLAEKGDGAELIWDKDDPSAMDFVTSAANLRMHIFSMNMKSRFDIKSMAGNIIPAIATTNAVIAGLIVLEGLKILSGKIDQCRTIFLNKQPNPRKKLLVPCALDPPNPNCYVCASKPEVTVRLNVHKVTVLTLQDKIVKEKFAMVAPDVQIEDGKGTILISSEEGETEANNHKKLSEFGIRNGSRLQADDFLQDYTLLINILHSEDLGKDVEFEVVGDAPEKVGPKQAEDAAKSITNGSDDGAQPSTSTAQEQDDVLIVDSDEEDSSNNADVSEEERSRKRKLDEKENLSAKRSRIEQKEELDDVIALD
T1 sequence (Q9UBE0 1-346): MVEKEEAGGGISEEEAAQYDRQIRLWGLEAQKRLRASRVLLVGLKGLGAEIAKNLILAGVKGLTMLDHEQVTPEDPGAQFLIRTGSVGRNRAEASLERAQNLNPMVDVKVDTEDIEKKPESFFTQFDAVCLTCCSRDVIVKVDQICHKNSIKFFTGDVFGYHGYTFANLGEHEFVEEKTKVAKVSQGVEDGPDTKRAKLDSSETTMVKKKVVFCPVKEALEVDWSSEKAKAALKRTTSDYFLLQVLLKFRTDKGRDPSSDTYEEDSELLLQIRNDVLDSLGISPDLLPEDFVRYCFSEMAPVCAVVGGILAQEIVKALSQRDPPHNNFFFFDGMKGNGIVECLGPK
Kind of test: SUMO IF: in vitro inhibitory activity assay against SAE in HCT116 cells (SUMO-2/3 immunofluorescence). The note with it: class symbols, 6 h at 37° C. The class given is cell-based. The essentials:
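SUMO-2/3 immunofluorescence (18H8 primary 1:400, FITC secondary 1:300) was read after 6 h compound exposure of HCT116 cells at 37 °C. Inhibition rate and IC50 derive from signal relative to DMSO-treated wells.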
The compound `NS(=O)(=O)OC[C@H]1[C@H](F)[C@@H](Nc2ncncc2C(=O)c2cc3c(s2)CCCC32NCCc3cc(F)c(Cl)c(F)c32)C[C@@H]1O` (stereo partly shown) [Compound 116] returned a half-inhibitory concentration (IC50) of 50 to 200 nM. Still for that read-out and setting: the result for `NS(=O)(=O)OC[C@H]1[C@H](F)[C@@H](Nc2ncncc2C(=O)c2cc3c(s2)CC[C@@]32OCCc3ccc(F)cc32)C[C@@H]1O` [Compound 748] reads more than 200 nM; that for `C#CCN1Cc2sc(C(=O)c3cncnc3N[C@H]3C[C@H](O)[C@@H](COS(N)(=O)=O)[C@@H]3F)cc2C2(C1)NCCc1ccc(Cl)cc12` (stereo partly shown) [Compound 657], not above 50 nM; that for `NS(=O)(=O)OC[C@H]1[C@H](F)[C@@H](Nc2ncncc2C(=O)c2cc3c(s2)CSC[C@@]32NCCc3ccc(F)cc32)C[C@@H]1O` [Compound 298], more than 200 nM. Same read-out and setting: next, `NS(=O)(=O)OC[C@H]1[C@H](F)[C@@H](Nc2ncncc2C(=O)c2cc3c(s2)CC[C@]32NCCc3cc(F)c(Cl)cc32)C[C@@H]1O` [Compound 692]: not above 50 nM; `N#Cc1ccc2c(c1)[C@]1(CCCc3sc(C(=O)c4cncnc4N[C@H]4C[C@H](O)[C@@H](COS(N)(=O)=O)[C@@H]4F)cc31)NCC2` [Compound 95]: more than 200 nM; `NS(=O)(=O)OC[C@H]1[C@H](F)[C@@H](Nc2ncncc2C(=O)c2cc3c(s2)COC[C@]32NCCc3c(F)cc(Cl)cc32)C[C@@H]1O` [Compound 575]: 50 to 200 nM.

For `CC1CN[C@]2(CCCc3sc(C(=O)c4cncnc4N[C@H]4C[C@H](O)[C@@H](COS(N)(=O)=O)[C@@H]4F)cc32)c2cc(Cl)ccc21` (stereo partly shown) [Compound 1022], the IC50 is not above 50 nM. Still for that read-out and setting: next, `NS(=O)(=O)OC[C@H]1[C@H](F)[C@@H](Nc2ncncc2C(=O)c2cc3c(s2)C=CC32OCCc3ccc(Cl)cc32)C[C@@H]1O` (stereo partly shown) [Compound 759]: not above 50 nM; `Cc1sc(C(=O)c2cncnc2N[C@H]2C[C@H](O)[C@@H](COS(N)(=O)=O)[C@@H]2F)cc1C1NCCc2ccc(C3CC3)cc21` (stereo partly shown) [Compound 242]: 50 to 200 nM. On to `NS(=O)(=O)OC[C@H]1[C@H](F)[C@@H](Nc2ncncc2C(=O)c2cc3c(s2)C(F)=C[C@@]32NCCc3ccc(F)cc32)C[C@@H]1O` [Compound 619], for which the concentration for half-maximal inhibition (IC50) is more than 200 nM. The same measure, in the same setting: next, `NS(=O)(=O)OC[C@H]1[C@H](F)[C@@H](Nc2ncncc2C(=O)c2cc3c(s2)CCCC32NCCc3ccccc32)C[C@@H]1O` (stereo partly shown) [Compound 85]: 50 to 200 nM; `NS(=O)(=O)OC[C@H]1[C@H](F)[C@@H](Nc2ncncc2C(=O)c2cc3c(s2)CCC32NCCc3cc(Cl)ncc32)C[C@@H]1O` (stereo partly shown) [Compound 161]: 50 to 200 nM.

The compound `NS(=O)(=O)OC[C@H]1[C@H](F)[C@@H](Nc2ncncc2C(=O)c2cc3c(s2)CCC[C@@]32OCCc3ccc(F)cc32)C[C@@H]1O` [Compound 712] gave an IC50 of more than 200 nM. Consider `NS(=O)(=O)OC[C@H]1[C@H](F)[C@@H](Nc2ncncc2C(=O)c2cc3c(s2)CC[C@]32NCCc3cc(F)c(F)cc32)C[C@@H]1O` [Compound 691], for which the half-maximal inhibitory concentration (IC50) was not above 50 nM. Still for that read-out and setting: next, `CN1CCc2ccc(Cl)cc2[C@@]12CCCc1sc(C(=O)c3cncnc3N[C@H]3C[C@H](O)[C@@H](COS(N)(=O)=O)[C@@H]3F)cc12` [Compound 596]: 50 to 200 nM. Compound `CCN1Cc2sc(C(=O)c3cncnc3N[C@H]3C[C@H](O)[C@@H](COS(N)(=O)=O)[C@@H]3F)cc2[C@]2(C1)OCCc1ccc(F)cc12` [Compound 728] yielded an IC50 not above 50 nM. On the same count and under the same terms, next, `NS(=O)(=O)OC[C@H]1[C@H](F)[C@@H](Nc2ncncc2C(=O)c2cc([C@@H]3NCCc4ccc(Cl)cc43)c(C3CC3)s2)C[C@@H]1O` [Compound 985]: 50 to 200 nM. Take `N#Cc1ccc2c(c1)[C@]1(CCc3sc(C(=O)c4cncnc4N[C@H]4C[C@H](O)[C@@H](COS(N)(=O)=O)[C@@H]4F)cc31)OCC2` [Compound 751]: the IC50 was more than 200 nM. Still for that read-out and setting: the result for `NS(=O)(=O)OC[C@H]1[C@H](F)[C@@H](Nc2ncncc2C(=O)c2cc3c(s2)CC=C[C@]32NCCc3ccc(Cl)cc32)C[C@@H]1O` [Compound 681] reads not above 50 nM. The same measure, in the same setting: the result for `NS(=O)(=O)OC[C@H]1[C@H](F)[C@@H](Nc2ncncc2C(=O)c2cc3c(s2)CCC[C@]32NCCc3cc(Cl)ncc32)C[C@@H]1O` [Compound 679] reads 50 to 200 nM. Still for that read-out and setting: next, `NS(=O)(=O)OC[C@H]1[C@H](F)[C@@H](Nc2ncncc2C(=O)c2cc3c(s2)CSCC32NCCc3ccc(Cl)cc32)C[C@@H]1O` (stereo partly shown) [Compound 300]: not above 50 nM; `NS(=O)(=O)OC[C@H]1[C@H](F)[C@@H](Nc2ncncc2C(=O)c2cc3c(s2)CCCC32NCCc3cc(Cl)c(Cl)cc32)C[C@@H]1O` (stereo partly shown) [Compound 112]: 50 to 200 nM; `Cc1sc(C(=O)c2cncnc2N[C@H]2C[C@H](O)[C@@H](COS(N)(=O)=O)[C@@H]2F)cc1C1NCc2ccc(Cl)cc21` (stereo partly shown) [Compound 257]: more than 200 nM. Compound `NS(=O)(=O)OC[C@H]1[C@H](F)[C@@H](Nc2ncncc2C(=O)c2cc3c(s2)CCC32NCCc3cc(Cl)c(Cl)cc32)C[C@@H]1O` (stereo partly shown) [Compound 154] came in with a concentration for half-maximal inhibition (IC50) of 50 to 200 nM. `NS(=O)(=O)OC[C@H]1[C@H](F)[C@@H](Nc2ncncc2C(=O)c2cc3c(s2)CSCC32NCCc3ccc(Cl)nc32)C[C@@H]1O` (stereo partly shown) [Compound 609] showed an IC50 of 50 to 200 nM. Same read-out and setting: the result for `NS(=O)(=O)CC[C@H]1[C@H](F)[C@@H](Nc2ncncc2C(=O)c2cc3c(s2)CCCC32NCCc3ccc(Cl)cc32)C[C@@H]1O` (stereo partly shown) [Compound 636] reads more than 200 nM; that for `[2H]C1([2H])Cc2ccc(Cl)cc2C2(CCCc3sc(C(=O)c4cncnc4N[C@H]4C[C@H](O)[C@@H](COS(N)(=O)=O)[C@@H]4F)cc32)N1` (stereo partly shown) [Compound 660], 50 to 200 nM. Still for that read-out and setting: next, `Cc1cc2c(cc1Cl)C1(CCCc3sc(C(=O)c4cncnc4N[C@H]4C[C@H](O)[C@@H](COS(N)(=O)=O)[C@@H]4F)cc31)NCC2` (stereo partly shown) [Compound 113]: 50 to 200 nM; `[2H]C1([2H])CNC2(CCCc3sc(C(=O)c4cncnc4N[C@H]4C[C@H](O)[C@@H](COS(N)(=O)=O)[C@@H]4F)cc32)c2cc(Cl)ccc21` (stereo partly shown) [Compound 663]: not above 50 nM; `CC(C)N1Cc2sc(C(=O)c3cncnc3N[C@H]3C[C@H](O)[C@@H](COS(N)(=O)=O)[C@@H]3F)cc2[C@]2(C1)OCCc1ccc(Cl)cc12` [Compound 737]: not above 50 nM. Still for that read-out and setting: the result for `NS(=O)(=O)OC[C@H]1[C@H](F)[C@@H](Nc2ncncc2C(=O)c2cc3c(s2)CCC[C@]32NC3(CC3)Cc3ccc(Cl)cc32)C[C@@H]1O` [Compound 684] reads 50 to 200 nM.

Staying with this test, now noted: numeric values, 6 h at 37° C.
`NS(=O)(=O)OC[C@H]1[C@H](F)[C@@H](Nc2ncncc2C(=O)c2cc3c(s2)CN(C2CC2)C[C@]32NCCc3ccc(Cl)cc32)C[C@@H]1O` [Compound 581] registered an IC50 of 23.8 nM. Compound `NS(=O)(=O)OC[C@H]1[C@H](F)[C@@H](Nc2ncncc2C(=O)c2cc3c(s2)CCC[C@@]32NCCc3ccc(Cl)cc32)C[C@@H]1O` [Compound 89] yielded an IC50 of more than 1000 nM. On the same count and under the same terms, next, `CCN1Cc2sc(C(=O)c3cncnc3N[C@H]3C[C@H](O)[C@@H](COS(N)(=O)=O)[C@@H]3F)cc2[C@]2(C1)NCCc1ccc(Cl)cc12` [Compound 647]: 19.9 nM; `NS(=O)(=O)OC[C@H]1[C@H](F)[C@@H](Nc2ncncc2C(=O)c2cc3c(s2)CC[C@@]32NCCc3ccccc32)C[C@@H]1O` [Compound 128]: more than 1000 nM; `[2H]C1([2H])CN[C@]2(CCCc3sc(C(=O)c4cncnc4N[C@H]4C[C@H](O)[C@@H](COS(N)(=O)=O)[C@@H]4F)cc32)c2cc(Cl)ccc21` [Compound 665]: 20.6 nM.
